Data taken from patent US9018256B2, “Feed additive for animals of P-thymol, salt derivative or ester derivative thereof” (priority 2011, dated 2015).
Like-named read-outs stand apart in the source and are kept apart here.

Tests used:
[1] = system: Lingnan yellow big chicken; experiment: Comparison of chicken growth promoting effects of p-thymol, thymol and carvacrol; format: in vivo; details: 100 ppm in feed, 1 to 21-day-old chickens; for Total Feed Consumption / Total Weight Gain: 50 per group
[2] = system: three-way cross weaned pigs; experiment: Growth promoting effect test on weaned pigs; format: in vivo, pig; details: 100 ppm in feed, 30 days; for Total Feed Consumption / Total Weight Gain: 30 per group
black carps = experiment: Application in aquatic feed (black carp growth test); format: in vivo; details: for average weight gain improved compared with the control group / feed conversion rate (FCR) / feed conversion rate reduced compared with the control group / final weight / weight gain: 100 ppm in feed, black carps, 8 weeks
salmonella gallinarum = format: cell-based
Chemy Valley ducks = experiment: Growth promoting effect test on ducks; format: in vivo, duck; details: 100 ppm in feed, 1 to 46-day-old ducks; for Total Feed Consumption / Total Weight Gain: 100 per group
clostridium perfringens = format: cell-based
escherichia coli = experiment: In-vitro antibacterial activity, tube double dilution method; format: cell-based
[3] = Volatility comparison under reduced-pressure drying; details: for weight remained after reduced-pressure drying: initial weight 10.0 g
Wistar rats = experiment: Rat oral LD50 measurement (improved Karber's method); format: in vivo
salmonella bacillus = format: cell-based
rats = details: rat, in vivo; cited from earlier work
staphylococcus aureus = experiment: In-vitro antibacterial activity, tube double dilution method; format: cell-based
salmonella choleraesuis = experiment: as above; format: cell-based
[4] = Changes in chicken complete formula feed during preservation (gas chromatography); details: 25-30° C., initial 100 ppm
[5] = clostridium perfringens CAU0591
[6] = clostridium perfringens CAU0795
[7] = clostridium perfringens CAU0855
[8] = clostridium perfringens CAU0859
[9] = clostridium perfringens HNAU160
[10] = clostridium perfringens HNAU166
[11] = rat, oral, preliminary experiment
[12] = salmonella choleraesuis CEC19940141
[13] = salmonella choleraesuis CEC19940146

Cc1ccc(C(C)C)cc1O [carvacrol, 2-methyl-5-isopropyl-phenol]
Average Weight Gain [1]: 332.9 g | Feed Conversion Rate [1]: 1.761 | Survival Rate [1]: 100% | feed conversion rate reduced compared with the control group [1]: 0.021 | relative weight gain rate improved compared with the control group [1]: 3.19% | Total Feed Consumption [1]: 29.32 kg | Total Weight Gain [1]: 16.65 kg | Relative Weight Gain Rate ([1]; control = 100): 103.19% | Feed Conversion Rate [2]: 2.336 | Survival Rate [2]: 100% | feed conversion rate reduced compared with the control group [2]: 0.085 | relative weight gain rate improved compared with the control group [2]: 4.69% | Total Feed Consumption [2]: 798.1 kg | Total Weight Gain [2]: 341.7 kg | Relative Weight Gain Rate ([2]; control = 100): 104.69% | average weight gain improved compared with the control group (black carps): 3.52% | feed conversion rate (FCR) (black carps): 1.45 ± 0.06 | feed conversion rate reduced compared with the control group (black carps): 2.68% | final weight (black carps): 598.08 ± 27.11 g | weight gain (black carps): 138.0 ± 7.78% | survival rate (SR) (black carps; in vivo): 100% | Inhibiting Activity (minimum bacteria inhibiting concentration) (salmonella gallinarum; salmonella gallinarum CAU0205): 250 µg/mL | Inhibiting Activity (minimum bacteria inhibiting concentration) (salmonella gallinarum; salmonella gallinarum CAU0206): 500 µg/mL | Inhibiting Activity (minimum bacteria inhibiting concentration) (salmonella gallinarum; salmonella gallinarum QAU0399): 500 µg/mL | Feed Conversion Rate (Chemy Valley ducks): 2.739 | Survival Rate (Chemy Valley ducks): 100% | feed conversion rate reduced compared with the control group (Chemy Valley ducks): 0.049 | relative weight gain rate improved compared with the control group (Chemy Valley ducks): 2.51% | Total Feed Consumption (Chemy Valley ducks): 928.3 kg | Total Weight Gain (Chemy Valley ducks): 338.9 kg | Relative Weight Gain Rate (Chemy Valley ducks; control = 100): 102.51% | Inhibiting Activity (minimum bacteria inhibiting concentration) (clostridium perfringens; [5]): 500 µg/mL | Inhibiting Activity (minimum bacteria inhibiting concentration) (clostridium perfringens; [6]): 250 µg/mL | Inhibiting Activity (minimum bacteria inhibiting concentration) (clostridium perfringens; [7]): 500 µg/mL | Inhibiting Activity (minimum bacteria inhibiting concentration) (clostridium perfringens; [8]): 500 µg/mL | Inhibiting Activity (minimum bacteria inhibiting concentration) (clostridium perfringens; [9]): 500 µg/mL | Inhibiting Activity (minimum bacteria inhibiting concentration) (clostridium perfringens; [10]): 250 µg/mL | Inhibiting Activity (minimum bacteria inhibiting concentration) (escherichia coli; escherichia coli CAU0020): 250 µg/mL | Inhibiting Activity (minimum bacteria inhibiting concentration) (escherichia coli; escherichia coli CAU0053): 500 µg/mL | Inhibiting Activity (minimum bacteria inhibiting concentration) (escherichia coli; escherichia coli CAU0147): 250 µg/mL | Inhibiting Activity (minimum bacteria inhibiting concentration) (escherichia coli; escherichia coli CAU0159): 250 µg/mL | Inhibiting Activity (minimum bacteria inhibiting concentration) (escherichia coli; escherichia coli CAU0195): 500 µg/mL | weight remained after reduced-pressure drying ([3]; 50° C., 1 hour): 4.84 g | weight remained after reduced-pressure drying ([3]; 70° C., 1 hour): 0 g | weight remained after reduced-pressure drying ([3]; 90° C., 1 hour): 0 g | volatilization (in words) ([3]; reduced-pressure drying within 1 hour at 70° C. and over): completely volatilized | Toxicity Judgment (Wistar rats; rat oral LD50 grading): relative | LD50 (Wistar rats; rat, oral, observed 7 days): 6400 mg/kg weight | Dm (dose causing 100% death) (Wistar rats; [11]): 1800 mg/kg weight | Dn (dose causing 0% death) (Wistar rats; [11]): 400 mg/kg weight | Inhibiting Activity (minimum bacteria inhibiting concentration) (salmonella bacillus): 250 µg/mL | oral median lethal dose (LD50) of rats (rats): 810 mg/kg weight | Inhibiting Activity (minimum bacteria inhibiting concentration) (staphylococcus aureus; s. aureus CAU0804): 500 µg/mL | Inhibiting Activity (minimum bacteria inhibiting concentration) (staphylococcus aureus; s. aureus CAU0810): 250 µg/mL | Inhibiting Activity (minimum bacteria inhibiting concentration) (staphylococcus aureus; s. aureus CAU0837): 250 µg/mL | Inhibiting Activity (minimum bacteria inhibiting concentration) (staphylococcus aureus; s. aureus CAU0866): 250 µg/mL | Inhibiting Activity (minimum bacteria inhibiting concentration) (staphylococcus aureus; s. aureus CAU0868): 250 µg/mL | Inhibiting Activity (minimum bacteria inhibiting concentration) (staphylococcus aureus; s. aureus CAU0869): 250 µg/mL | Inhibiting Activity (minimum bacteria inhibiting concentration) (staphylococcus aureus; s. aureus CAU0871): 250 µg/mL | Inhibiting Activity (minimum bacteria inhibiting concentration) (salmonella choleraesuis; [12]): 500 µg/mL | Inhibiting Activity (minimum bacteria inhibiting concentration) (salmonella choleraesuis; [13]): 250 µg/mL | concentration measured after extraction from the complete formula feed ([4]; 1 day): 99.6 ppm | concentration measured after extraction from the complete formula feed ([4]; 15 days): 87.7 ppm | concentration measured after extraction from the complete formula feed ([4]; 30 days): 73.1 ppm | concentration measured after extraction from the complete formula feed ([4]; 45 days): 58.5 ppm | concentration measured after extraction from the complete formula feed ([4]; 60 days): 42.6 ppm

Cc1ccc(C(C)C)c(O)c1 [thymol, 5-methyl-2-isopropyl-phenol]
Average Weight Gain [1]: 334.8 g | Feed Conversion Rate [1]: 1.756 | Survival Rate [1]: 100% | feed conversion rate reduced compared with the control group [1]: 0.026 | Total Feed Consumption [1]: 29.40 kg | Total Weight Gain [1]: 16.74 kg | Feed Conversion Rate [2]: 2.324 | Survival Rate [2]: 100% | feed conversion rate reduced compared with the control group [2]: 0.097 | Total Feed Consumption [2]: 796.3 kg | Total Weight Gain [2]: 342.6 kg | average weight gain improved compared with the control group (black carps): 4.53% | feed conversion rate (FCR) (black carps): 1.44 ± 0.08 | feed conversion rate reduced compared with the control group (black carps): 3.36% | final weight (black carps): 601.58 ± 28.02 g | weight gain (black carps): 139.29 ± 7.37% | Inhibiting Activity (minimum bacteria inhibiting concentration) (salmonella gallinarum; salmonella gallinarum CAU0205): 500 µg/mL | Inhibiting Activity (minimum bacteria inhibiting concentration) (salmonella gallinarum; salmonella gallinarum CAU0206): 250 µg/mL | Inhibiting Activity (minimum bacteria inhibiting concentration) (salmonella gallinarum; salmonella gallinarum QAU0399): 500 µg/mL | Feed Conversion Rate (Chemy Valley ducks): 2.726 | Survival Rate (Chemy Valley ducks): 100% | feed conversion rate reduced compared with the control group (Chemy Valley ducks): 0.062 | Total Feed Consumption (Chemy Valley ducks): 940.7 kg | Total Weight Gain (Chemy Valley ducks): 345.1 kg | Inhibiting Activity (minimum bacteria inhibiting concentration) (clostridium perfringens; [5]): 250 µg/mL | Inhibiting Activity (minimum bacteria inhibiting concentration) (clostridium perfringens; [6]): 250 µg/mL | Inhibiting Activity (minimum bacteria inhibiting concentration) (clostridium perfringens; [7]): 250 µg/mL | Inhibiting Activity (minimum bacteria inhibiting concentration) (clostridium perfringens; [8]): 250 µg/mL | Inhibiting Activity (minimum bacteria inhibiting concentration) (clostridium perfringens; [9]): 500 µg/mL | Inhibiting Activity (minimum bacteria inhibiting concentration) (clostridium perfringens; [10]): 250 µg/mL | Inhibiting Activity (minimum bacteria inhibiting concentration) (escherichia coli; escherichia coli CAU0020): 250 µg/mL | Inhibiting Activity (minimum bacteria inhibiting concentration) (escherichia coli; escherichia coli CAU0053): 250 µg/mL | Inhibiting Activity (minimum bacteria inhibiting concentration) (escherichia coli; escherichia coli CAU0147): 250 µg/mL | Inhibiting Activity (minimum bacteria inhibiting concentration) (escherichia coli; escherichia coli CAU0159): 250 µg/mL | Inhibiting Activity (minimum bacteria inhibiting concentration) (escherichia coli; escherichia coli CAU0195): 250 µg/mL | weight remained after reduced-pressure drying ([3]; 50° C., 1 hour): 6.12 g | weight remained after reduced-pressure drying ([3]; 70° C., 1 hour): 1.02 g | weight remained after reduced-pressure drying ([3]; 90° C., 1 hour): 0 g | volatilized part ([3]; reduced-pressure drying 70° C., 1 hour): 89.8% | Inhibiting Activity (minimum bacteria inhibiting concentration) (salmonella bacillus): 250 µg/mL | Inhibiting Activity (minimum bacteria inhibiting concentration) (staphylococcus aureus; s. aureus CAU0804): 500 µg/mL | Inhibiting Activity (minimum bacteria inhibiting concentration) (staphylococcus aureus; s. aureus CAU0810): 125 µg/mL | Inhibiting Activity (minimum bacteria inhibiting concentration) (staphylococcus aureus; s. aureus CAU0837): 250 µg/mL | Inhibiting Activity (minimum bacteria inhibiting concentration) (staphylococcus aureus; s. aureus CAU0866): 250 µg/mL | Inhibiting Activity (minimum bacteria inhibiting concentration) (staphylococcus aureus; s. aureus CAU0868): 250 µg/mL | Inhibiting Activity (minimum bacteria inhibiting concentration) (staphylococcus aureus; s. aureus CAU0869): 125 µg/mL | Inhibiting Activity (minimum bacteria inhibiting concentration) (staphylococcus aureus; s. aureus CAU0871): 250 µg/mL | Inhibiting Activity (minimum bacteria inhibiting concentration) (salmonella choleraesuis; [12]): 250 µg/mL | Inhibiting Activity (minimum bacteria inhibiting concentration) (salmonella choleraesuis; [13]): 250 µg/mL | concentration measured after extraction from the complete formula feed ([4]; 1 day): 100.4 ppm | concentration measured after extraction from the complete formula feed ([4]; 15 days): 90.2 ppm | concentration measured after extraction from the complete formula feed ([4]; 30 days): 78.9 ppm | concentration measured after extraction from the complete formula feed ([4]; 45 days): 63.7 ppm | concentration measured after extraction from the complete formula feed ([4]; 60 days): 49.7 ppm
